Test results reported in patent publication US10022453B2 (BAYER PHARMA AKTIENGESELLSCHAFT, priority 2013, dated 2018).

Assays:
[1] = biological target: T1, human kinesin spindle protein KSP/Eg5 (Homo sapiens, UniProt P52732); assay: Inhibition of the kinesin spindle protein KSP/Eg5 (ATPase, malachite green); format: biochemical; settings: 10 nM KSP motor domain, 500 μM ATP, 2 h RT
T1 construct: The motor domain of the human kinesin spindle protein KSP/Eg5; purchased tebu-bio/Cytoskeleton Inc 027EG01-XL
T1 sequence (P52732 18-359 limits assumed): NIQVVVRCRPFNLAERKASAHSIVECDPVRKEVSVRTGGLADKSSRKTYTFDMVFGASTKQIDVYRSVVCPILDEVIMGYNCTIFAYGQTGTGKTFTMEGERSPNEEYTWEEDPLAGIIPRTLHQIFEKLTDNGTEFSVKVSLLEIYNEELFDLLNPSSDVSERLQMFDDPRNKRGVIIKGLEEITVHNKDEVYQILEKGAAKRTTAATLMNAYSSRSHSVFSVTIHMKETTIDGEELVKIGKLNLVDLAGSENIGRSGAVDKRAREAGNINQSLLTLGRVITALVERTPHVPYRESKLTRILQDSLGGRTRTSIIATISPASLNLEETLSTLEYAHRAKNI
Experimental: C-1b Determination of the Inhibition of the Kinesin Spindle Protein KSP/Eg5 by Selected Examples
The motor domain of the human kinesin spindle protein KSP/Eg5 (from tebu-bio/Cytoskeleton Inc, No. 027EG01-XL) is incubated at a concentration of 10 nM with 50 μg/ml taxol- (from Sigma No. T7191-5MG) stabilized microtubuli (bovine or porcine, from tebu-bio/Cytoskeleton Inc) for 5 min at RT in 15 mM PIPES, pH 6.8 (5 mM MgCl2 and 10 mM DTT, from Sigma). The freshly prepared mixture is aliquoted into a 384-well MTP. The inhibitors to be examined at concentrations of 1.0×10^−6 M to 1.0×10^−13 and ATP (final concentration 500 μM, from Sigma) are then added. Incubation is at RT for 2 h. ATPase activity is detected by detecting the inorganic phosphate formed using malachite green (from Biomol). […] The individual data of the dose-activity curve are eight-fold determinations. The IC50 values are means of three independent experiments.

[2] = Cell permeability, flux assay using Caco-2 cells; settings: human, Caco-2
Experimental: C-3 In Vitro Tests for Determining Cell Permeability
The cell permeability of a substance can be investigated by means of in vitro testing in a flux assay using Caco-2 cells [M. D. Troutman and D. R. Thakker, Pharm. […] For this purpose, the cells were cultured for 15-16 days on 24-well filter plates. For the determination of permeation, the respective working example was applied in a HEPES buffer to the cells either apically (A) or basally (B) and incubated for 2 hours. After 0 hours and after 2 hours, samples were taken from the cis and trans compartments. The samples were separated by HPLC (Agilent 1200, Böblingen, Germany) using reverse phase columns.
Of critical importance for toxophores which are released intracellularly is the permeability from B to A [Papp(B-A)] and the ratio of Papp(B-A) to Papp(A-B) (efflux ratio): the lower this permeability, the slower the active and passive transport processes of the substance through the monolayer of Caco-2 cells.

| Structure (SMILES) | IC50 [1] [nM] | Papp B→A at 2 h [2] [×10⁻⁶ cm/s] | efflux ratio at 2 h [2] |
| --- | --- | --- | --- |
| CC(C)(C)[C@H](c1nc(-c2cc(F)ccc2F)cn1Cc1ccccc1)N(CC(CN)CS)C(=O)CO (single isomer, unassigned; isomer 1) [Example 93] | 2.52 |  |  |
| CC(C)(C)[C@H](c1nc(-c2cc(F)ccc2F)cn1Cc1ccccc1)N(CC(CN)CS)C(=O)CO (single isomer, unassigned; isomer 2) [Example 94] | 5.14 |  |  |
| CC(C)(C)[C@H](c1nc(-c2cc(F)ccc2F)cn1Cc1ccccc1)N(CC[C@H](N)C(=O)NCCCC[C@H](N)C(=O)O)C(=O)CO.O=C(O)C(F)(F)F [Example 59, N^6-{(2S)-2-Amino-4-[{(1R)-1-[1-benzyl-4-(2,5-difluorophenyl)-1H-imidazol-2-yl]-2,2-dimethylpropyl}(glycoloyl)amino]butanoyl}-L-lysine trifluoroacetic acid (1:1)] | 4.27 | 2.2 | 4.8 |
| CC(C)(C)[C@H](c1nc(-c2cc(F)ccc2F)cn1Cc1ccccc1)N(CC[C@H](N)C(=O)NCCN1C(=O)CC(SC[C@H](N)C(=O)O)C1=O)C(=O)CO (stereo partly drawn) [Example 61, S-{1-[2-({(2S)-2-Amino-4-[{(1R)-1-[1-benzyl-4-(2,5-difluorophenyl)-1H-imidazol-2-yl]-2,2-dimethylpropyl}(glycoloyl)amino]butanoyl}amino)ethyl]-2,5-dioxopyrrolidin-3-yl}-L-cysteine] |  | 4.4 | 7.4 |
| CC(C)(C)[C@H](c1nc(-c2cc(F)ccc2F)cn1Cc1ccccc1)N(CC[C@H](N)C(=O)NCCOCCN1C(=O)CC(SC[C@H](N)C(=O)O)C1=O)C(=O)CO (some centres unmarked) [Example 62] |  | 5 | 6 |
| CC(C)[C@H](NC(=O)CCCCCN1C(=O)CC(SC[C@H](N)C(=O)O)C1=O)C(=O)N[C@@H](C)C(=O)N[C@@H](CCCCNC(=O)[C@@H](N)CCN(C(=O)CO)[C@@H](c1nc(-c2cc(F)ccc2F)cn1Cc1ccccc1)C(C)(C)C)C(=O)O.O=C(O)C(F)(F)F (stereo partly drawn) [Example 63, N-[6-(3-{[(2R)-2-Amino-2-carboxyethyl]sulfanyl}-2,5-dioxopyrrolidin-1-yl)hexanoyl]-L-valyl-L-alanyl-N^6-{(2S)-2-amino-4-[{(1R)-1-[1-benzyl-4-(2,5-difluorophenyl)-1H-imidazol-2-yl]-2,2-dimethylpropyl}(glycoloyl)amino]butanoyl}-L-lysine trifluoroacetic acid (1:1)] | 2.88 | 0.098 | 1.1 |
| CC(C)(C)[C@H](c1nc(-c2cc(F)ccc2F)cn1Cc1ccccc1)N(CC[C@H](N)C(=O)NCCNC(=O)CN1C(=O)CC(SC[C@H](N)C(=O)O)C1=O)C(=O)CO.O=C(O)C(F)(F)F (stereo partly drawn) [Example 64, S-[1-(2-{[2-({(2S)-2-Amino-4-[{(1R)-1-[1-benzyl-4-(2,5-difluorophenyl)-1H-imidazol-2-yl]-2,2-dimethylpropyl}(glycoloyl)amino]butanoyl}amino)ethyl]amino}-2-oxoethyl)-2,5-dioxopyrrolidin-3-yl]-L-cysteine trifluoroacetic acid (1:1)] | 3.06 | 1 | 2.8 |
| C[C@H](NC(=O)CCNC(=O)[C@@H](N)CCN(C(=O)CO)[C@@H](c1nc(-c2cc(F)ccc2F)cn1Cc1ccccc1)C(C)(C)C)C(=O)N[C@@H](CCCNC(N)=O)C(=O)Nc1ccc(NC(=O)CN2C(=O)CC(SC[C@H](N)C(=O)O)C2=O)cc1 (stereo partly drawn) [Example 65, N-{(2S)-2-Amino-4-[{(1R)-1-[1-benzyl-4-(2,5-difluorophenyl)-1H-imidazol-2-yl]-2,2-dimethylpropyl}(glycoloyl)amino]butanoyl}-beta-alanyl-L-alanyl-N-(4-{[(3-{[(2R)-2-amino-2-carboxyethyl]sulphanyl}-2,5-dioxopyrrolidin-1-yl)acetyl]amino}phenyl)-N^5-carbamoyl-L-ornithinamide] | 2.03 | 0.12 | 2.3 |
| CC(C)(C)[C@H](c1nc(-c2cc(F)ccc2F)cn1Cc1ccccc1)N(CC[C@H](N)C(=O)NN)C(=O)CO.O=C(O)C(F)(F)F [Example 77, Trifluoroacetic acid/N-[(3S)-3-amino-4-hydrazino-4-oxobutyl]-N-{(1R)-1-[1-benzyl-4-(2,5-difluorophenyl)-1H-imidazol-2-yl]-2,2-dimethylpropyl}-2-hydroxyacetamide (1:1)] |  | 48 | 47 |
| CC(C)(C)[C@H](c1nc(-c2cc(F)ccc2F)cn1Cc1ccccc1)N(CC[C@H](N)C(=O)NCCC(=O)O)C(=O)CO [Example 79, N-{(2S)-2-Amino-4-[{(1R)-1-[1-benzyl-4-(2,5-difluorophenyl)-1H-imidazol-2-yl]-2,2-dimethylpropyl}(glycoloyl)amino]butanoyl}-beta-alanine] |  | 5.8 |  |
| CC(C)(C)[C@H](c1nc(-c2cc(F)ccc2F)cn1Cc1ccccc1)N(CC[C@H](N)C(=O)N(N)CC(=O)O)C(=O)CO [Example 81, (1-{(2S)-2-Amino-4-[{(1R)-1-[1-benzyl-4-(2,5-difluorphenyl)-1H-imidazol-2-yl]-2,2-dimethylpropyl}(glycoloyl)amino]butanoyl}hydrazino)acetic acid/trifluoroacetic acid (1:2)] | 1.42 |  |  |
| CC(C)(C)[C@H](c1nc(-c2cc(F)ccc2F)cn1Cc1ccccc1)N(CCCN)C(=O)c1ccc(N)cc1 [Example 95, Trifluoroacetic acid/4-amino-N-(3-aminopropyl)-N-{(1R)-1-[1-benzyl-4-(2,5-difluorophenyl)-1H-imidazol-2-yl]-2,2-dimethylpropyl}benzamide (2:1)] | 3.05 |  |  |
| CC(C)(C)[C@H](c1nc(-c2cc(F)ccc2F)cn1Cc1ccccc1)N(CCCNC(=O)[C@@H](N)CCCNC(N)=O)C(=O)CO [Example 100, Trifluoroacetic acid/N-{3-[{(1R)-1-[1-benzyl-4-(2,5-difluorophenyl)-1H-imidazol-2-yl]-2,2-dimethylpropyl}(glycoloyl)amino]propyl}-N5-carbamoyl-L-ornithinamide (1:1)] | 5.99 |  |  |
| CC(C)[C@H](N)C(=O)N[C@@H](CCCNC(N)=O)C(=O)NCCCN(C(=O)CO)[C@@H](c1nc(-c2cc(F)ccc2F)cn1Cc1ccccc1)C(C)(C)C [Example 101, Trifluoroacetic acid/L-valyl-N-{3-[{(1R)-1-[1-benzyl-4-(2,5-difluorophenyl)-1H-imidazol-2-yl]-2,2-dimethylpropyl}(glycoloyl)amino]propyl}-N5-carbamoyl-L-ornithinamide (1:1)] | 4.28 |  |  |
| CC(C)(C)[C@H](c1cc(-c2cc(F)ccc2F)cn1Cc1ccccc1)N(CC[C@H](N)C(=O)N[C@@H](CO)C(=O)O)C(=O)CO [Example 201, N-{(2S)-2-Amino-4-[{(1R)-1-[1-benzyl-4-(2,5-difluorophenyl)-1H-pyrrol-2-yl]-2,2-dimethylpropyl}(glycoloyl)amino]butanoyl}-L-serine/trifluoroacetic acid (1:1)] | 0.179 |  |  |
| CC(C)(C)[C@H](c1cc(-c2cc(F)ccc2F)cn1Cc1ccccc1)N(CC[C@H](N)C(=O)NCC(=O)O)C(=O)CO [Example 203, N-{(2S)-2-Amino-4-[{(1R)-1-[1-benzyl-4-(2,5-difluorophenyl)-1H-pyrrol-2-yl]-2,2-dimethylpropyl}(glycoloyl)amino]butanoyl}glycine/trifluoroacetic acid (1:1)] | 0.23 |  |  |
| CC(C)(C)[C@H](c1cc(-c2cc(F)ccc2F)cn1Cc1ccccc1)N(CC[C@H](N)C(=O)NCCOCCN1C(=O)CC(SC[C@H](N)C(=O)O)C1=O)C(=O)CO.O=C(O)C(F)(F)F (stereo partly drawn) [Example 251, S-(1-{2-[2-({(2S)-2-Amino-4-[{(1R)-1-[1-benzyl-4-(2,5-difluorophenyl)-1H-pyrrol-2-yl]-2,2-dimethylpropyl}(glycoloyl)amino]butanoyl}amino)ethoxy]ethyl}-2,5-dioxopyrrolidin-3-yl)-L-cysteine/trifluoroacetic acid (1:1)] |  | 2.1 |  |
| CC(C)(C)[C@H](c1cc(-c2cc(F)ccc2F)cn1Cc1ccccc1)N(CC[C@H](N)C(=O)NCCNC(=O)CNC(=O)CC1SC[C@@H](C(=O)O)NC1=O)C(=O)CO (stereo partly drawn) [Example 256, (3R)-6-{(11S,15R)-11-Amino-15-[1-benzyl-4-(2,5-difluorophenyl)-1H-pyrrol-2-yl]-14-glycoloyl-16,16-dimethyl-2,5,10-trioxo-3,6,9,14-tetraazaheptadec-1-yl}-5-oxothiomorpholine-3-carboxylic acid/trifluoroacetic acid (1:1)] | 16.4 |  |  |
